Experimental data as given in patent US20240368092A1, “2,4-Dihydro-3H-1,2,4-Triazol-3-One P2X7 Antagonists” (Breye Therapeutics ApS, priority 2021, published 2024).

Key:
Assay type in all cases: cell-based
human P2X7 channel = biological target: T1, human P2X7 channel (Homo sapiens, UniProt Q99572); assay: human P2X7 channel assay by automated patch-clamp (QPatch 16X); conditions: HEK-293 cells expressing P2X7; current evoked by 100 microM BzATP; whole-cell, held at -80 mV; read-out: human Q-Patch (activity range)
T1 construct: expressed in transfected cells; host or cells: HEK-293
T1 sequence (Q99572 1-595): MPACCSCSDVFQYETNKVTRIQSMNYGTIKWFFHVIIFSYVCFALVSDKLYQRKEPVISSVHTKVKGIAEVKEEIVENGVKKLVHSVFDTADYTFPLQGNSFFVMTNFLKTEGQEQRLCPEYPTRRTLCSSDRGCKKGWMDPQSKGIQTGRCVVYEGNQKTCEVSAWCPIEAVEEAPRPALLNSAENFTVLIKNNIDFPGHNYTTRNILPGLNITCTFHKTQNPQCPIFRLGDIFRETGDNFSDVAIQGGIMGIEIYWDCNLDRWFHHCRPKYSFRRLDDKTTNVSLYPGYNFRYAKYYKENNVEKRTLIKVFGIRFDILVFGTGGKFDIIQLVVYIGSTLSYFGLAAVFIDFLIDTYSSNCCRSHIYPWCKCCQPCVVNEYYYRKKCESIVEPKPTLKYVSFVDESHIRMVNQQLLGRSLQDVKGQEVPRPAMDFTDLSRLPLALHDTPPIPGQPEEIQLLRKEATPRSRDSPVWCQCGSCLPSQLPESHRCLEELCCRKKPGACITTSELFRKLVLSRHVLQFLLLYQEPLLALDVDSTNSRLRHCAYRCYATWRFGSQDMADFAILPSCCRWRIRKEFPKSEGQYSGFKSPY
Description: In order to directly monitor the block of P2X7 channel, an electrophysiological assay was developed and implemented on the QPatchl6X automated electrophysiology instrument.
HEK-293 cells expressing the P2X7 channels were cultured in modified EMEM.
72 hours before experiment, 5 million cells were seeded onto T225 flasks. Just before the experiment cells were washed twice, detached from the flask with trypsin-EDTA, re-suspended in the suspension solution and placed on the QPatch 16x.
The compounds (20 mM in a 100% DMSO) stored at −20° C. were prepared the day of the experiment (a first dilution 1:20 in 100% DMSO to prepare a 1 mM stock solution, then a 1 microM solution in external solution+a serial dilution 1:10).
The standard whole-cell voltage clamp experiments were performed at room temperature. From these experiments the multihole technology was used and the data were sampled at 2 KHz.
The intracellular solution contained (mM) 135 CsF, 10 NaCl, 1 EGTA, 10 HEPES, (pH 7.2 with CsOH) whereas the extracellular contained (mM) 145 NaCl, 4 KCl, 0.5 MgCl2, 1 CaCl2, 10 HEPES, 10 Glc (pH 7.4 with NaOH).
After establishment of the seal and the passage in the whole cell configuration, the cells were held at −80 mV. The P2XR7 current was evoked by applying 100 microM of BzATP alone (4 times) and then in the presence increasing concentrations of the compound under investigation (1, 10, 100 and 1000 nM).
The pre-incubation periods 5 to 8 contain increasing concentrations of the compound of interest (1, 10, 100 and 1000 nM), as illustrated in FIGURE (application protocol).
The maximal inward current evoked by BzATP in absence or presence of increasing concentrations of the compounds under investigation was measured and normalized. The potential […] effect was measured as % of control and as IC50 determined fitting the dose-response curves data with the following equation:
Here are reported the potency ranges as A, B, C and D, where A is <10 nM; B is 10 nM-100 nM, C is 0.1-1 μM, D is 1-10 μM.

humanP2X7 = biological target: T2, humanP2X7 (Homo sapiens, UniProt Q99572); assay: P2X7 channel calcium-influx assay (Fluo-8, FLIPR TETRA), human P2X7; conditions: HEK-293 cells stably transfected with P2X7; Bz-ATP at EC80; low divalent cation buffer; read-out: humanP2X7 (activity range)
T2 construct: expressed in transfected cells; host or cells: HEK-293
T2 sequence (Q99572 1-595): T1 sequence (Q99572 1-595)
Description: (§1) Extracellular binding of Bz-ATP to P2X7 receptor opens the channel and allows Ca^2+ influx into the cells. This Ca^2+ entry was measured in HEK-293 cells stably transfected with P2X7 receptor using Screen Quest™ Fluo-8 No Wash Calcium Assay Kit (AAt Bioquest®, cat. 36316). Once inside the cell, the lipophilic blocking groups of Fluo-8 are cleaved by non-specific cell esterases, resulting in a negatively-charged fluorescent dye that stays inside cells. Its fluorescence increases upon binding to calcium. When HEK-293/P2X7 cells are stimulated with Bz-ATP, Ca^2+ enters the cells and the fluorescence of Fluo-8 NW increases. The dye has an absorption spectrum compatible with excitation at 488 nm by argon laser sources and its emission wavelength is in the range of 515-575 nm.
(§2) HEK-293 cells stably transfected with P2X7 receptor were seeded overnight in growth medium at 10,000 to 20,000 cells/well in 384-well plate. 24 hours later, the medium was removed, and the cells were pre-loaded at RT for 1 hour with 20 μL/w of Fluo-8 NW. Then 10 μL/w of test compounds and reference antagonist A438079 at 3×-concentration were injected with the FLIPRTETRA and the kinetic response over a period of five minutes was monitored. A second injection of 15 μL/w of 3× reference activator (Bz-ATP at EC80) was performed with the FLIPR TETRA and the signal of the emitted fluorescence was recorded for additional three minutes. All the experiment was carried out in a Low Divalent Cation Assay Buffer (0.3 mM Ca^2+ and 0 mM Mg^2+). The effect of the test compounds was measured as percent inhibition vs the reference antagonist and IC50 values were calculated accordingly. Here are reported the potency ranges as A, B, C and D, where A is <200 nM; B is 200 nM-1 μM, C is 1-10 μM, D is 10-30 μM.

mouseP2X7 = biological target: T3, mouseP2X7 (Mus musculus, UniProt Q9Z1M0); assay: P2X7 channel calcium-influx assay (Fluo-8, FLIPR TETRA), mouse P2X7; conditions: HEK-293 cells stably transfected with P2X7; Bz-ATP at EC80; low divalent cation buffer; read-out: mouseP2X7 (activity range)
T3 construct: expressed in transfected cells; host or cells: HEK-293
T3 sequence (Q9Z1M0 1-595): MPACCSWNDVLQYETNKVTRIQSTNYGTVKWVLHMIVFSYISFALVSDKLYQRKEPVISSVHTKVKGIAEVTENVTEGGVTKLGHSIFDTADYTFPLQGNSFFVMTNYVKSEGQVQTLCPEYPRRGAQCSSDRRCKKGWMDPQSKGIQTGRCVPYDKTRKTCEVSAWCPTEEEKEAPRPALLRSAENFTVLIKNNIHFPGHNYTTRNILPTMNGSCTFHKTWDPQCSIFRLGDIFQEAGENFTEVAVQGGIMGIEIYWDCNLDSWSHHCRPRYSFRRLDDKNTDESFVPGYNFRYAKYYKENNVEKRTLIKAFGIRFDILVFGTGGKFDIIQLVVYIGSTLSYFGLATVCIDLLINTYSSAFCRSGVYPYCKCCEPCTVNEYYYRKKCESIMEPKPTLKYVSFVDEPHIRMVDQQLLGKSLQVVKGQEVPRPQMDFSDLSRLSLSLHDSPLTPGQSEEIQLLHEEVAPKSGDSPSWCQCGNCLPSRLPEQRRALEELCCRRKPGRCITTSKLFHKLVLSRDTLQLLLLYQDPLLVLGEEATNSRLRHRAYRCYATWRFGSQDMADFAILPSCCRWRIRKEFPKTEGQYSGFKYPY
Description: as §1, §2

ratP2X7 = biological target: T4, ratP2X7 (Rattus norvegicus, UniProt Q64663); assay: P2X7 channel calcium-influx assay (Fluo-8, FLIPR TETRA), rat P2X7; conditions: HEK-293 cells stably transfected with P2X7; Bz-ATP at EC80; low divalent cation buffer; read-out: ratP2X7 (activity range)
T4 construct: expressed in transfected cells; host or cells: HEK-293
T4 sequence (Q64663 1-595): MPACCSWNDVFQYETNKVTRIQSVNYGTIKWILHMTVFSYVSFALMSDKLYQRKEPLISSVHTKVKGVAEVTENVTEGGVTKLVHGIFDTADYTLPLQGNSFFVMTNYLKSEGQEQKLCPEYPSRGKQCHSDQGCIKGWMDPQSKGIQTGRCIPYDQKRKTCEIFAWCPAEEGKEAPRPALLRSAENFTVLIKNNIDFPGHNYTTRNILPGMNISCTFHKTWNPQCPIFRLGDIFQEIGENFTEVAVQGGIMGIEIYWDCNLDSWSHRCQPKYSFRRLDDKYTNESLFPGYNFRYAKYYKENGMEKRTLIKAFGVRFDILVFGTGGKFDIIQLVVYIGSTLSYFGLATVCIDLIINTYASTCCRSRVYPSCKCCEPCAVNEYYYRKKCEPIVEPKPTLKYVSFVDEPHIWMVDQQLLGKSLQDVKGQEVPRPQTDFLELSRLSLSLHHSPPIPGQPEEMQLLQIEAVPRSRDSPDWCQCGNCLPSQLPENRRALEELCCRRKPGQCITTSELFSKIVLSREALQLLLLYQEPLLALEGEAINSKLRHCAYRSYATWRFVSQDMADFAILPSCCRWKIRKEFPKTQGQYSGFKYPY
Description: as §1, §2

| IC50 (human P2X7 channel) [µM] | IC50 (humanP2X7) [µM] | IC50 (mouseP2X7) [µM] | IC50 (ratP2X7) [µM] | SMILES |
| --- | --- | --- | --- | --- |
| 1 to 10 | 1 to 10 | 1 to 10 | 0.2 to 1 | Cn1nc(Cc2ccccc2F)n(CCC2CCC(F)(F)CC2)c1=O [Example 46, 4-(2-(4,4-difluorocyclohexyl)ethyl)-5-(2-fluorobenzyl)-2-methyl-2,4-dihydro-3H-1,2,4-triazol-3-one] |
| 0.1 to 1 | 0.2 to 1 | 1 to 10 | < 0.2 | Cn1nc(CC2CCCCC2)n(Cc2c(F)cccc2Cl)c1=O [Example 24, 4-(2-chloro-6-fluorobenzyl)-5-(cyclohexylmethyl)-2-methyl-2,4-dihydro-3H-1,2,4-triazol-3-one] |
| – | < 0.2 | 0.2 to 1 | < 0.2 | CCn1nc(Cc2ccccc2Cl)n(CC2CCCCCC2)c1=O [Example 64, 5-[(2-chlorophenyl)methyl]-4-(cycloheptylmethyl)-2-ethyl-2,4-dihydro-3H-1,2,4-triazol-3-one] |
| – | 0.2 to 1 | 0.2 to 1 | < 0.2 | Cn1nc(CC2CCCCCC2)n(Cc2c(F)cccc2Cl)c1=O [Example 59, 4-[(2-chloro-6-fluorophenyl)methyl]-5-(cycloheptylmethyl)-2-methyl-2,4-dihydro-3H-1,2,4-triazol-3-one] |
| – | 0.2 to 1 | 1 to 10 | 0.2 to 1 | Cn1nc(CC2CCC(F)(F)CC2)n(Cc2c(F)cccc2Cl)c1=O [Example 71, 4-[(2-chloro-6-fluorophenyl)methyl]-5-[(4,4-difluorocyclohexyl)methyl]-2-methyl-2,4-dihydro-3H-1,2,4-triazol-3-one] |
| – | 10 to 30 | 1 to 10 | 0.2 to 1 | Cn1nc(Cc2ccc(F)cc2Cl)n(CC2CCC(F)(F)C2)c1=O (centres unmarked) [Example 10, 5-(2-chloro-4-fluorobenzyl)-4-((3,3-difluorocyclopentyl)methyl)-2-methyl-2,4-dihydro-3H-1,2,4-triazol-3-one] |
| – | 0.2 to 1 | 0.2 to 1 | < 0.2 | O=c1n(CC(F)(F)F)nc(Cc2ccccc2Cl)n1CC1CCCCCC1 [Example 54, 5-[(2-chlorophenyl)methyl]-4-(cycloheptylmethyl)-2-(2,2,2-trifluoroethyl)-2,4-dihydro-3H-1,2,4-triazol-3-one] |

The next lines start with the molecule.

| SMILES | IC50 (human P2X7 channel) [µM] | IC50 (humanP2X7) [µM] | IC50 (mouseP2X7) [µM] | IC50 (ratP2X7) [µM] |
| --- | --- | --- | --- | --- |
| Cn1nc(Cc2c(F)cccc2Cl)n(CC2CCC(F)CC2)c1=O (centres unmarked) [Example 6, 5-(2-chloro-6-fluorobenzyl)-4-((4-fluorocyclohexyl)methyl)-2-methyl-2,4-dihydro-3H-1,2,4-triazol-3-one] | – | 0.2 to 1 | 0.2 to 1 | < 0.2 |
| Cn1nc(Cc2c(F)cccc2Cl)n(Cc2ccc(F)cc2)c1=O [Example 1, 5-(2-chloro-6-fluorobenzyl)-4-(4-fluorobenzyl)-2-methyl-2,4-dihydro-3H-1,2,4-triazol-3-one] | – | 1 to 10 | 1 to 10 | 0.2 to 1 |
| Cn1nc(Cc2ccc(F)cc2Cl)n(CC2CCCCC2)c1=O [Example 9, 5-(2-chloro-4-fluorobenzyl)-4-(cyclohexylmethyl)-2-methyl-2,4-dihydro-3H-1,2,4-triazol-3-one] | – | 0.2 to 1 | 0.2 to 1 | < 0.2 |
| Cn1nc(Cc2c(F)cccc2Cl)n(CC2CCC(C(F)(F)F)CC2)c1=O (centres unmarked) [Example 7, 5-(2-chloro-6-fluorobenzyl)-2-methyl-4-((4-(trifluoromethyl)cyclohexyl)methyl)-2,4-dihydro-3H-1,2,4-triazol-3-one] | – | < 0.2 | 0.2 to 1 | < 0.2 |
| Cn1nc(Cc2c(F)cccc2Cl)n(CC2CCC(F)(F)C2)c1=O (centres unmarked) [Example 4, 5-(2-chloro-6-fluorobenzyl)-4-((3,3-difluorocyclopentyl)methyl)-2-methyl-2,4-dihydro-3H-1,2,4-triazol-3-one] | – | 0.2 to 1 | 1 to 10 | 0.2 to 1 |
| Cn1nc(Cc2ccc(F)cc2Cl)n(Cc2ccc(F)cc2)c1=O [Example 8, 5-(2-chloro-4-fluorobenzyl)-4-(4-fluorobenzyl)-2-methyl-2,4-dihydro-3H-1,2,4-triazol-3-one] | – | 1 to 10 | 1 to 10 | 1 to 10 |
